{"source": "patent US12403184B2", "about": "“Compositions and methods for treating neurodegenerative disroders” (priority 2018, dated 2025)", "key": {"ATAD3A": {"biological_target": "T1, ATAD3A (Homo sapiens, UniProt Q9NVI7, K135E)", "T1 construct": "expressed in transfected cells; host or cells: HEK293 cells", "T1 sequence (Q9NVI7 51-586 K135E limits assumed)": "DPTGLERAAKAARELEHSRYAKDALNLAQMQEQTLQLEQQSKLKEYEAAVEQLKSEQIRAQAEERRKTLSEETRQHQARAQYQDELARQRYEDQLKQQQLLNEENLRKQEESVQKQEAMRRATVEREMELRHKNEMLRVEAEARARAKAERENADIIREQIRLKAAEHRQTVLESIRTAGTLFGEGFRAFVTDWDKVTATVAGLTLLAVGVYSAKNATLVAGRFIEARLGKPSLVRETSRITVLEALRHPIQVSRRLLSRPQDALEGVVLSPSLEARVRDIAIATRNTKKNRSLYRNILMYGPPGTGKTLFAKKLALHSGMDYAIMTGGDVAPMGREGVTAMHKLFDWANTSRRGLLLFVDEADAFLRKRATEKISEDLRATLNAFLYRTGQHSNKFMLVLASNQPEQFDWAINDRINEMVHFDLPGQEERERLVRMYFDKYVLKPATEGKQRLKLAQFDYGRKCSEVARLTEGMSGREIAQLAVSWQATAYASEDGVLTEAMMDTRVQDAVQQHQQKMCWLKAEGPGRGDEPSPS", "assay": "ATAD3A dimerization by western blot, HEK293 cells", "type": "cell-based", "text": "Human ATAD3A was amplified from HEK293T cDNA samples through standard PCR methods, and then cloned into pCMV-Myc, pcDNA3.1 (+)-Flag, pEGFP-N1 vectors. ATAD3A truncated mutants were constructed using overlap cloning techniques. ATAD3A point mutant K358E, and K135 mutants (K135E, K135R, K135Q, and K135A) and S2S48 mutants were constructed by using QuickChange II Site-Directed Mutagenesis Kit (Agilent Technologies). Drp1 truncated mutants were described in our previous study. Cells were transfected with plasmids using TransIT®-2020 transfection reagent (Minis Bio LLC, Madison, WI) according to manufacturer's instruction.\nTo analyze dimerization of ATAD3A under non-reducing conditions, the cells or tissues were harvested and lysed with total lysates buffer. An equal amount of proteins was subject to 8% SDS-PAGE analysis in the presence or absence of β-mercaptoethanol (β-ME). For in vitro BMH crosslinking, the cell lysates were incubated with 1 mM BMH at r.t. for up to 25 min and quenched with 0.1% β-ME, followed by SDS-PAGE analysis. For in-vivo crosslinking, the cells were treated with cell-permeable crosslinker BMH (1 mM) for 20 min at 37° C. After crosslinking, the cells were quenched in PBS with 0.1% β-ME. For DSP crosslinking, the cells were treated with cell-permeable crosslinker for 5 min at 37° C., followed by quenching and washing with 10 mM Glycine in PBS. For formaldehyde (FA) crosslinking, the cells were incubated with PBS buffer containing 1% FA for 20 min at r.t., and the crosslinking reaction was terminated by washing in PBS containing 100 mM glycine. The cells were then lysed and subject to 8% SDS-PAGE analysis. For DTSSP crosslinking of proteins in mitochondrial fractions, isolated mitochondria samples were suspended in the mitochondrial lysis buffer (250 mM sucrose, 20 mM HEPES-NaOH, pH 7.5, 10 mM KCl, 1.5 mM MgCl2, 1 mM EDTA, 1 mM EGTA and protease inhibitor). An equal amount of crude mitochondria was incubated at 30° C. in the presence of 0.5 mM DTSSP. The cross-linking was terminated by the addition of SDS loading buffer. […]"}, "HdhQ111 cells": {"system": "HdhQ111 cells", "assay": "Mitochondrial morphology (anti-Tom20 staining) in striatal cells", "type": "cell-based, mouse", "conditions": "1 μM/day for 4 days, relative to TAT", "method": "Mouse striatal cell lines HdhQ7 and Q111 cells are immortalized from knock-in mice carrying 7 and 111 CAG repeats, respectively, in the mouse htt gene. HdhQ7 and HdhQ111 purchased from CHDI Foundation were cultured in DMEM supplemented with 10% (v/v) heat-inactivated FBS, 1% (v/v) penicillin/streptomycin, and 400 μg/ml G418 at 33° C. with 5% CO2. Cells within 14 passages were used in all experiments.\nCells grown on coverslips were fixed with 4% paraformaldehyde for 20 mins at r.t., permeabilized with 0.1% Triton X-100 in PBS and blocked with 2% normal goat serum. The cells were then incubated with primary antibody (overnight, at 4° C.) followed by Alexa Fluor 568 or 488 secondary antibody (2 h, r.t.). After staining with Nuclei with Hoechst dye (1:10,000 dilution), the cells were mounted onto slides. The cells were imaged by Fluoview FV1000 microscopy (Olympus)."}, "Drp1/ATAD3A": {"biological_target": "T2, Drp1/ATAD3A (Mus musculus, UniProt Q925I1)", "T2 construct": "The total lysates of cells or mouse striatum were subject to IP analysis; endogenous in cells; host or cells: HdhQ7 / HdhQ111 mouse striatal cells; wild-type mouse striatal cells exposed to 3-NP", "T2 sequence (Q925I1 2-591 limits assumed)": "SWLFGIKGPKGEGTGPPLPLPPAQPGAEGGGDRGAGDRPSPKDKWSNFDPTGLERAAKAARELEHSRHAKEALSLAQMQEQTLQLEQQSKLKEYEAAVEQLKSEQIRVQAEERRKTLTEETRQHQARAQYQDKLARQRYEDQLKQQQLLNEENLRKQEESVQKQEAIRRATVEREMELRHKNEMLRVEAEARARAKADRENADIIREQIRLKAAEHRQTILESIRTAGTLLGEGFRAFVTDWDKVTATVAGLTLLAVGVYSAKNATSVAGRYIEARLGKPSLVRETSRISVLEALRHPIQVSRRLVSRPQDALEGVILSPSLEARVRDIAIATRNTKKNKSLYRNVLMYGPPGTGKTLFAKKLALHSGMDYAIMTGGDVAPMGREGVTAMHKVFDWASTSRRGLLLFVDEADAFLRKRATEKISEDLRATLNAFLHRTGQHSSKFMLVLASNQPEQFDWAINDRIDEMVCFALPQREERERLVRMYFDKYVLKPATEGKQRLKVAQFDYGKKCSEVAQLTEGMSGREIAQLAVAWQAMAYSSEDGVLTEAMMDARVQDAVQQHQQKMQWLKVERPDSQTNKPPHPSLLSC", "assay": "Immunoprecipitation of Drp1/ATAD3A binding in mouse striatal cells", "type": "cell-based", "method": "Cells and mouse brain tissues were harvested and lysed in total lysis buffer ([…], pH 7.9, […], […], 1% Triton X-100, and protease inhibitor cocktail) for 30 mins on ice and centrifuged at 12,000×g for 10 min at 4° C. The supernatants were incubated with the indicated primary antibodies or control IgG (sc-2025 and sc-2027, Santa Cruz Biotechnology) overnight at 4° C., followed by incubation with protein A/G beads (sc-2003, Santa Cruz Biotechnology) for 2 h at 4° C. The immunoprecipitates were washed with lysis buffer three times for a total of 30 min and then subject to WB analysis."}}, "note": "Where no end group is shown, it is not given here.", "data": [{"substance": "YGRKKRRQRRRGGEDKRKT-NH2 [DA1, YGRKKRRQRRR-GG-EDKRKT-NH2]", "values": [{"measurement": "dimerization of ATAD3A", "setting": "ATAD3A; HEK293 cells expressing ATAD3A acetyl-deficient mutant K135E", "result": "abolished"}, {"measurement": "dimerization of ATAD3A", "setting": "ATAD3A; HEK293 cells expressing ATAD3A ΔN50 mutant, 1 μM for 48 h", "result": "abolished"}, {"measurement": "dimerization of ATAD3A", "setting": "ATAD3A; normal cells or cells expressing ATAD3A wildtype", "result": "minor effect"}, {"measurement": "number of cells with fragmented mitochondria", "setting": "HdhQ111 cells", "result": "reduced"}, {"measurement": "binding of Drp1/ATAD3A", "setting": "Drp1/ATAD3A; HdhQ111 cells, peptide 1 μM/day for 4 days, vs TAT", "result": "significantly reduced"}, {"measurement": "binding of Drp1/ATAD3A", "setting": "Drp1/ATAD3A; wildtype mouse striatal cells exposed to 3-NP (5 mM for 4 hours), DA1 1 μM overnight", "result": "significantly reduced"}]}]}
